Test results from patent US10240216B2 (priority 2013, dated 2019).

Columns and labels:
[1] = system: a number of bacteria; details: concentration of 64 µg/mL; cited from earlier work
[2] = system: a number of bacteria and fungi; details: concentration of 1 mg/ml; cited from earlier work
[3] = system: Magnaporthe oryzae; format: cell-based; details: at 25 μg/mL
[4] = system: human neutrophils; details: cited from earlier work
[5] = system: Bacillus brevis; format: cell-based
[6] = system: Paealomyces variotii; format: cell-based
[7] = system: Mucor miehei; format: cell-based
[8] = system: HeLaS3 cells; details: 50 μg/mL, 72 h

## C[C@@H]1C[C@@](C)(O)Cc2ccc(CO)c(/C=C/C=C/C(=O)O)c21 [tanzawaic acid G, Tanzawaic acids G and H]
[1]
  activity against a number of bacteria: neither tanzawaic acids G nor H were found to be active

## hynapenes A, B and C [hynapene A]
[2]
  antimicrobial activity in vitro against a number of bacteria and fungi: show antimicrobial activity

## CC1Cc2ccc(CO)c(/C=C/C=C/C(=O)O)c2C(C)C1 (stereo not shown) [arohynapene B]
[3]
  inhibition of the spore germination of Magnaporthe oryzae: 100%
[2]
  antimicrobial activity in vitro against a number of bacteria and fungi: no antimicrobial activity

## arohynapene D
[2]
  antimicrobial activity in vitro against a number of bacteria and fungi: no antimicrobial activity

## Tanzawaic acids A, B, C and D [tanzawaic acid B]
[4]
  inhibition of superoxide anion production in human neutrophils: inhibit superoxide anion production

## Cc1ccc2c(c1/C=C/C=C/C(=O)O)[C@H](C)C[C@H](C)C2 [tanzawaic acid A]
[4]
  inhibition of superoxide anion production in human neutrophils: inhibit superoxide anion production
[5]
  activity in agar diffusion assay against Bacillus brevis: slight activity
[6]
  activity in agar diffusion assay against Paealomyces variotii: slight activity
[7]
  activity in agar diffusion assay against Mucor miehei: slight activity
[8]
  cytotoxic effects against HeLaS3 cells: cytotoxic effects

## Cc1ccc2c(c1/C=C/C=C/C(=O)O)C(C)CC(C)C2O (stereo not shown) [arohynapene A]
[3]
  inhibition of the spore germination of Magnaporthe oryzae: 100%
[2]
  antimicrobial activity in vitro against a number of bacteria and fungi: no antimicrobial activity
